Here are results for 21 molecules from patent US10966999B2, “3′3′ cyclic dinucleotides with phosphonate bond activating the sting adaptor protein” (INSTITUTE OF ORGANIC CHEMISTRY AND BIOCHEMISTRY ASCR, V.V.I., priority 2017, dated 2021).

A word on the pEC50: it is the EC50 on a negative log10 scale, so that one unit is a factor of ten. As usually defined, the ΔTm is the change in melting temperature against a reference sample.

The target of assay [1] is T1, human wild type STING (WT STING) (Homo sapiens, UniProt Q86WV6, H232R).
T1 construct: host or cells: 293T (ATCC CRL-3216), stably transfected, with a 4xISRE firefly luciferase reporter
T1 sequence (Q86WV6 whole entry H232R): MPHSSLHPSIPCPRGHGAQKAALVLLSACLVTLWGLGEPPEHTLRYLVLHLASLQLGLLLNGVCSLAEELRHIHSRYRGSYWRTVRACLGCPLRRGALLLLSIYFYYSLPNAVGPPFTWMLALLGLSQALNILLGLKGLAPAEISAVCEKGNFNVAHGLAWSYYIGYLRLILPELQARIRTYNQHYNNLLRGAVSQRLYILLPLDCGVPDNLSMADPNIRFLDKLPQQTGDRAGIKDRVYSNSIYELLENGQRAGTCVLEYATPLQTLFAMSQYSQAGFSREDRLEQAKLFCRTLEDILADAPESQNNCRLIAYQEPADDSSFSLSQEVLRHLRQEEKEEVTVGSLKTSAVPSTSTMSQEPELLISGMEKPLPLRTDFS
Put plainly: Digitonin assay using 293T wtSTING-FL reporter cells. In kind it is cell-based. The settings on record: 293T wtSTING-FL cells; ISRE firefly luciferase reporter; 30 min in Digitonin buffer, then 5 hours; 8-point dose-response curve. An excerpt:
ISRE Reporter Plasmid (pGL64.27-4×ISRE)
Two complementary oligonucleotides of the sequence […] […] […] […] […] The oligonucleotides were mixed in equal molar amounts, hybridized, and cleaved by restriction endonucleases HindIII (cat. #. R0104S, NEB, Ipswich, USA) and BglII (cat. #R0144S, NEB, Ipswich, USA). Ultimately, they were ligated into plasmid pGL4.27 (cat. #E6651, Promega, Madison, USA) linearized with the same enzymes. As result the sequence with four ISRE sites was placed upstream of the minimum promoter of firefly luciferase reporter gene.
After 5 minutes incubation at room temperature (RT), 250 μL of the mixture was added dropwise to the cells in one well. Cells were incubated 36 hours at 37° C. with 5% CO2, and then detached with 0.05% Trypsin and 0.22 g/L EDTA (both cat. #L0941, Biowest, Riverside, USA).
Transfected cells were seeded onto poly-D-lysine coated six well plates at density 50,000 cells per 1 cm^2 in DMEM medium with high glucose containing 10% heat inactivated FBS, 30 μg/mL blasticidin (cat. #ant-bl-05, InvivoGen, San Diego, USA), 0.06 mg/ml Penicillin G and 0.1 mg/ml Streptomycin Sulfate (both cat. #. L0018, Biowest, Riverside, USA). The medium was replenished every 3-4 days until visible colonies of cells resistant to blasticidin were formed.
Blasticidin resistant cells stably expressing WT STING were further transfected with pGL64.27-4×ISRE plasmid following the same procedure as described above. […] Homogeneous culture of stably double transfected cells was prepared by limiting dilution of cells in 96 well plates and wells with cells were selected that originated from a single cell.
The medium was removed next day and three fold serial dilutions of compounds in Digitonin buffer containing 50 mmol·l^−1 HEPES (cat. #H3375, Sigma Aldrich, Czech Republic) pH 7.0, 100 mmol·l^−1 KCl, 3 mmol·l^−1 MgCl2, 0.1 mmol·l^−1 DTT (cat. #D0632, Sigma Aldrich, Czech Republic), 85 mmol·l^−1 Sucrose (cat. #S7903, Sigma Aldrich, Czech Republic), 0.2% BSA (cat. #A2153, Sigma Aldrich, Czech Republic), 1 mmol·l^−1 ATP (cat. #A1852, Sigma Aldrich, Czech Republic), 0.1 mmol·l^−1 GTP (cat. #G8877, Sigma Aldrich, Czech Republic), and 10 μg/mL Digitonin A (cat. #D141, Sigma Aldrich, Czech Republic) were added to the cells. The buffer was removed after 30 minutes incubation at 37° C. with 5% CO2, the cells were washed once with 100 μl of cultivation medium, and 100 μl of medium was added to each well. The plates with cells were incubated for 5 hours at 37° C. with 5% CO2, 50 μl of the medium was removed and 30 μl of ONE-Glo™ Luciferase Assay System reagent (cat. #E6120, Promega, Madison, USA) was added to each well. Luminescence was read on Synergy H1 (Biotek, Winooski, USA).
For orientation: In a reporter assay the amount or activity of a reporter protein is the signal.

Assay [2] has as its target T2, AQ STING (G230A-R293Q) (Homo sapiens, UniProt Q86WV6, G230A/H232R/R293Q).
T2 construct: encoded truncated human WT STING or AQ STING (amino acid residues 140-343) with N-terminal 8×His and SUMO tag; 8xHis-SUMO (N, cleaved yes); made in house; host or cells: E. coli Rosetta-gami B (DE3)
The assay can be described thus: Differential Scanning Fluorimetry (DSF) with AQ STING. Conditions: thermal shift vs STING apoprotein; 150 μM CDN; 0.1 mg/ml protein; SYPRO Orange. The class given is binding. As to the method:
(§1) WT STING and AQ STING Proteins
(§2) Purified PCR products were cleaved with restriction enzymes BamHI (cat. #R0136S, NEB, Ipswich, USA) and NotI (cat. #R0189S, NEB, Ipswich, USA) and cloned into the pSUMO vector linearized with the identical enzymes.
(§3) DNase I (cat. #D5025, Sigma Aldrich, Czech Republic) and RNase A (cat. #R6513, Sigma Aldrich, Czech Republic) were added (final concentration 50 μg/ml) together with MgCl2 (final concentration 5 mmol·l^−1) to the homogenate and bacteria were lysed using French Press G-M™ High-Pressure Cell Press Homogenizer (1500 psi, 3 cycles). […] The resin was poured into a chromatography column, washed with 50 ml buffer A (50 mmol·l^−1 TrisCl (pH 8.0), 800 mmol·l^−1 NaCl, 3 mmol·l^−1 3-mercaptol; 10% glycerol; 20 mmol·l^−1 imidazole) and 8-His-SUMO tagged STING proteins were eluted with 15 ml buffer A containing 300 mmol·l^−1 imidazole. […] Proteins were concentrated with Amicon® Ultra-15 10 K device (cat. #UFC901008, Merck Millipore, Billerica, USA) and flash frozen in liquid N2.
(§4) Differential Scanning Fluorimetry (DSF) with WT STING and AQ STING
(§5) 20 μL solutions of the reaction mixtures were pipetted in triplicates into 96 well optical reaction plates and thermal denaturation of samples were performed on real time PCR cycler (LightCycler R 480 Instrument II—Roche, Basel, Switzerland). The first derivative of the thermal denaturation curves was performed to calculate denaturing temperatures of STING-CDN complexes and STING apoproteins. The thermal shift for each CDN was calculated by subtracting the average denaturing temperature of STING apoprotein from the average denaturing temperature of STING CDN complex.
(In general: DSF heats the sample and reads unfolding from a dye or from intrinsic fluorescence.)

The target of assay [3] is T3, WT STING (Homo sapiens, UniProt Q86WV6, H232R).
T3 construct: encoded truncated human WT STING or AQ STING (amino acid residues 140-343) with N-terminal 8×His and SUMO tag; 8xHis-SUMO (N, cleaved yes); made in house; host or cells: E. coli Rosetta-gami B (DE3)
T3 sequence (Q86WV6 140-343 H232R): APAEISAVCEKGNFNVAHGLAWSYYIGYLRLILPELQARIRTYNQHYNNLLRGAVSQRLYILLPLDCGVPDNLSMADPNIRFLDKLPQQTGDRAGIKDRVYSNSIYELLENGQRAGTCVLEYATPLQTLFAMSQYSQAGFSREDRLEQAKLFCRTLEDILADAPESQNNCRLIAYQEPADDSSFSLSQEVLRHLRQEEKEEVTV
Put plainly: Differential Scanning Fluorimetry (DSF) with WT STING. In kind it is binding. Conditions: thermal shift vs STING apoprotein; 150 μM CDN; 0.1 mg/ml protein; SYPRO Orange. The protocol: as §1, §2, §3, §4, §5

pEC50: −log10 of the molar value.

T2 sequence (Q86WV6 140-343 G230A/H232R/R293Q): as the sequence (Q86WV6 140-343 H232R) above, with G91A, R154Q counted along it

As for `Nc1nc2c(ncn2[C@@H]2O[C@@H]3COP(=O)(O)O[C@@H]4[C@H](O)[C@@H](COP(=O)(O)O[C@@H]2[C@@H]3O)O[C@H]4n2cnc3c(N)ncnc32)c(=O)[nH]1` [2′2′-cGAMP, reference compound], in assay [1], the pEC50 is 7.52. Further, in assay [2], the “DSF ΔTm AQ STING” value was determined as 19.4 °C. The “DSF ΔTm WT STING” value in assay [3] turned out to be 11.5 °C.
As to `Nc1nc2c(ncn2[C@@H]2O[C@@H]3COP(=O)(O)OC4C(O)[C@H](n5cnc6c(N)ncnc65)O[C@@H]4OCP(=O)(O)OC3C2O)c(=O)[nH]1` (stereo partly drawn) [Compound 44], the pEC50 in assay [1] is 7.05. Besides, the results for the shift in melting temperature (ΔTm) at 150 µM in assay [2] and in assay [3] were 11.2 °C and 4.5 °C, respectively.
The matching figures for `Nc1nc2c(nnn2[C@@H]2O[C@@H]3OCP(=O)(O)OC4C(O)[C@H](n5cnc6c(N)ncnc65)O[C@@H]4COP(=O)(O)OC3C2O)c(=O)[nH]1` (stereo partly drawn) [Compound 54]: 7.22, 12.2 °C and 3.9 °C.
The matching figures for `COc1nc(N)nc2c1ncn2[C@@H]1O[C@@H]2COP(=O)(O)OC3C(O)[C@H](n4cnc5c(N)ncnc54)O[C@@H]3OCP(=O)(O)OC2C1O` (stereo partly drawn) [Compound 41]: 4.75, 1.6 °C and 0.1 °C.
On the same counts, the results for `CNc1ncnc2c1ncn2[C@@H]1O[C@@H]2COP(=O)(O)OC3C(O)[C@H](n4cnc5c(=O)[nH]c(N)nc54)O[C@@H]3OCP(=O)(O)OC2C1O` (stereo partly drawn) [Compound 39] are 6.92, 8 °C and 2.9 °C.
Turning to `Nc1ncnc2c1ncn2[C@@H]1O[C@@H]2OCP(=O)(O)OC3C(O)[C@H](n4cnc5c(N)nc(F)nc54)O[C@@H]3COP(=O)(O)OC2C1O` (stereo partly drawn) [Compound 52], the pEC50 in assay [1] is 5.66. Besides, the values for the ΔTm at 150 µM in assay [2] and in assay [3] were 6.3 °C and 1.1 °C, respectively.
Regarding `Nc1nc2c(ncn2[C@@H]2O[C@@H]3OCP(=O)(O)OC4C(O)[C@H](n5cnc6c(N)ncnc65)O[C@@H]4COP(=O)(O)OC3C2O)c(=O)[nH]1` (stereo partly drawn) [Compound 37], in assay [1], the pEC50 was 8.30. In addition, the thermal shift (ΔTm) at 150 µM worked out at 15.9 °C in assay [2] and 7.6 °C in assay [3].
Regarding `Nc1ncc2ncn([C@@H]3O[C@@H]4COP(=O)(O)OC5C(O)[C@H](n6cnc7c(N)ncnc76)O[C@@H]5OCP(=O)(O)OC4C3O)c2n1` (stereo partly drawn) [Compound 42], in assay [1], the negative logarithm of the EC50 (pEC50) is 6.22. Moreover, the values for the ΔTm at 150 µM in assay [2] and in assay [3] were 6.6 °C and 0.7 °C, respectively.
On to `Nc1nc2c(ncn2[C@@H]2O[C@@H]3COP(=O)(O)O[C@H]4[C@@H](O)[C@H](n5cnc6c(=O)[nH]c(N)nc65)O[C@@H]4COP(=O)(O)O[C@H]3[C@H]2O)c(=O)[nH]1` [3′3′c-di-GMP, 3′3′-c-di-GMP, reference compound], for which, in assay [1], the pEC50 is 5.24. In assay [2], the “DSF ΔTm AQ STING” value came out at 7.7 °C. For the same molecule, in assay [3], the “DSF ΔTm WT STING” value is 2.6 °C.
For the molecule `Nc1ncnc2c1ncn2[C@@H]1O[C@@H]2OCP(=O)(O)OC3C(O)[C@H](n4cnc5c(N)ncnc54)O[C@@H]3COP(=O)(S)OC2C1O` (stereo partly drawn) [Compound 49], in assay [1], the pEC50 was 5.82. Further, the ΔTm at 150 µM was 4.2 °C in assay [2] and 0.5 °C in assay [3].
Regarding `Nc1ncnc2c1ncn2[C@@H]1O[C@@H]2OCP(=O)(O)OC3C(F)[C@H](n4cnc5c(N)nc(F)nc54)O[C@@H]3COP(=O)(O)OC2C1O` (stereo partly drawn) [Compound 53], in assay [1], the pEC50 is 6.05. The ΔTm at 150 µM in assay [2] is 8.8 °C; in assay [3] it was 3 °C.
Turning to `Nc1ncnc2c1ncn2[C@@H]1O[C@@H]2COP(=O)(O)O[C@H]3[C@@H](O)[C@H](n4cnc5c(N)ncnc54)O[C@@H]3COP(=O)(O)O[C@H]2[C@H]1O` [3′3′c-di-AMP, 3′3′-c-di-AMP, reference compound], in assay [1], the pEC50 was 6.52. Also, the “DSF ΔTm AQ STING” value in assay [2] worked out at 9.3 °C. Further, in assay [3], the “DSF ΔTm WT STING” value stood at 2.6 °C.
Regarding `Nc1ncnc2c1ccn2[C@@H]1O[C@@H]2COP(=O)(O)OC3C(O)[C@H](n4cnc5c(N)ncnc54)O[C@@H]3OCP(=O)(O)OC2C1O` (stereo partly drawn) [Compound 50], the pEC50 in assay [1] was 5.07. Further, the ΔTm at 150 µM in assay [2] came to 2 °C; in assay [3], 0.4 °C.
The matching figures for `Nc1ncnc2c1ncn2[C@@H]1O[C@@H]2COP(=O)(O)OC3C(O)[C@H](n4cnc5c(N)ncnc54)O[C@@H]3OCP(=O)(O)OC2C1N` (stereo partly drawn) [Compound 47]: 4.68, 2.1 °C and 0.1 °C.
The matching figures for `Nc1nc2c(ncn2[C@@H]2O[C@@H]3OCP(=O)(O)OC4C(O)[C@H](n5cnc6c(=O)[nH]c(N)nc65)O[C@@H]4OCP(=O)(O)OC3C2O)c(=O)[nH]1` (stereo partly drawn) [Compound 36]: 5.09, 5.6 °C and 0.6 °C.
The matching figures for `Nc1nc2c(ncn2[C@@H]2O[C@@H]3OCP(=O)(O)OC4C(O)[C@H](n5cnc6c(N)ncnc65)O[C@@H]4OCP(=O)(O)OC3C2O)c(=O)[nH]1` (stereo partly drawn) [Compound 38]: 6.70, 9.5 °C and 1.9 °C.
As for `Nc1nc2c(ccn2[C@@H]2O[C@@H]3COP(=O)(O)OC4C(O)[C@H](n5cnc6c(N)ncnc65)O[C@@H]4OCP(=O)(O)OC3C2O)c(=O)[nH]1` (stereo partly drawn) [Compound 43], the pEC50 in assay [1] is 5.33. The values for the ΔTm at 150 µM in assay [2] and in assay [3] were 3.3 °C and 0.6 °C, respectively.
The matching figures for `CSc1nc(N)nc2c1ncn2[C@@H]1O[C@@H]2COP(=O)(O)OC3C(O)[C@H](n4cnc5c(N)ncnc54)O[C@@H]3OCP(=O)(O)OC2C1O` (stereo partly drawn) [Compound 45]: 4.68, 1.1 °C and 0 °C.
On the same counts, the results for `Nc1ncnc2c1ncn2[C@@H]1O[C@@H]2OCP(=O)(O)OC3C(O)[C@H](n4cnc5c(N)ncnc54)O[C@@H]3COP(=O)(O)OC2C1O` (stereo partly drawn) [Compound 51] are 6.77, 10.6 °C and 4 °C.
On the same counts, the results for `Nc1ncnc2c1ncn2[C@@H]1O[C@@H]2OCP(=O)(O)OC3C(O)[C@H](n4cnc5c(N)ncnc54)O[C@@H]3COP(=O)(O)OC2C1O` (single isomer, unassigned) [Compound 32] are 5.92, 6.4 °C and 0.8 °C.
`CNc1ncnc2c1ncn2[C@@H]1O[C@@H]2COP(=O)(O)OC3C(O)[C@H](n4cnc5c(N)ncnc54)O[C@@H]3OCP(=O)(O)OC2C1O` (stereo partly drawn) [Compound 48]: the pEC50 in assay [1] is 5.82. The thermal shift (ΔTm) at 150 µM in assay [2] turned out to be 4.4 °C; in assay [3] it was 0.6 °C.
